Measurements: ChEMBL document CHEMBL1156406, “New Xenia diterpenoids from the Indonesian soft coral Xenia sp” (J Nat Prod, 2002)

Tests used:
Type in all cases: functional, cell-based
P388 = experiment: Cytotoxicity against mouse P388 cells
SK-MEL-28 = experiment: Cytotoxicity against human SK-MEL-28 cells
A549 = experiment: Cytotoxicity against human A549 cells
HT-29 = experiment: Cytotoxicity against human HT-29 cells

Measured: IC50

C=C1CC[C@@H]2/C(=C/C=C/C(C)(C)O)C(=O)OC[C@H]2C(=C)CC[C@@H]1O
> 1 µg/mL: all assays above

C=C1CC[C@@H]2/C(=C/C=C/C(C)(C)O)C(=O)OC[C@H]2C(=C)C[C@@H](O)[C@@H]1O
> 1 µg/mL: all assays above

C=C1C[C@@H](O)C2OC2(C)CC[C@@H]2/C(=C/C=C/C(C)(C)O)C(=O)OC[C@@H]12 (stereo partly specified)
> 1 µg/mL: all assays above

C=C1C[C@@H](O)/C=C(\C)CC[C@@H]2/C(=C/C=C/C(C)(C)O)C(=O)OC[C@@H]12 [ISOXENIOLIDE A]
> 1 µg/mL: all assays above
